The text below walks through data of patent publication US8022225B2, “Triazole derivative” (Taisho Pharmaceutical Co., Ltd, priority 2004, dated 2011).

The term inhibition denotes the relative decrease from the control value, in per cent.

Experiment [1] has as its target T1, human Edg-1(S1P1) (Homo sapiens, UniProt P21453).
T1 construct: expressed in transfected cells; host or cells: HEK-293
The experiment in a line: Cell system binding test: inhibition of [3H]-S1P binding to Edg-1(S1P1) gene transferred HEK-293 cells. To be noted: [3H]-S1P 10 nM.

For experiment [2], the target named is T1, human Edg-1(S1P1). The experiment in a line: Membrane system binding test: inhibition of [33P]-S1P binding to the membrane fraction of Edg-1(S1P1) gene transferred HEK-293 cells. Particulars: [33P]-S1P 0.1 nM. As to the method: The membrane fraction was obtained by treating the cells with a solubilizing buffer (1 mM Tris/HCl, pH 7.2) for 10 minutes on ice, centrifuging the system (1000×g, 5 min) to remove insoluble fractions, and then centrifuging the system (40000×g, 30 min, 4° C.). The resulting membrane fraction was dissolved in a binding buffer (20 mM Tris-HCl, pH 7.4, 100 mM NaCl, 15 mM NaF, 2 mM deoxypyridoxine, 4 mg/mL fatty acid-free BSA), and then [^33P]-S1P (produced by ARC, end concentration 0.1 nM) and a DMSO solution of the test compound (end concentration of the compound: 10^−5 M, end concentration of DMSO: 0.1%) were added, followed by stirring the mixture and subsequently treating it for 1 hour at 30° C. Using a harvester, the membrane fraction was harvested onto unifilter-96GF/C filter (produced by Perkin-Elmer). Then, the filter with the membrane fraction was washed 4 times with the binding buffer, and the filter was dried. To the filter, 25 μL Microscint 0 (produced by Perkin-Elmer) was added, and the assay system was measured for radioactivity by means of Top Count NXT (Packard). Based on the radioactivity, the amount (A) of binding of [^33P]-S1P to the membrane fraction upon addition of the compound was calculated.
The same procedure was performed in the absence of the test compound, and the amount (B) of binding of [^33P]-S1P was calculated. Moreover, the same procedure was performed in the absence of the test compound with the use of HEK-293 cells, to which the Edg-1(S1P1) gene had not been transferred, and the background amount (C) of binding of [^33P]-S1P was calculated.
The Edg-1(S1P1) binding inhibition rate of the compound, calculated from the following equation, is shown in […]

Where [3] appears, read: 10 μM compound, read-out: Cell system binding test % inhibition (10 μM).
Where [4] appears, read: 10 μM compound, membrane fraction of Edg-1(S1P1) gene transferred HEK-293 cells, read-out: Membrane system binding test % inhibition (10 μM).
[5] abbreviates: test compound 10^-5 M, 1 hour, read-out: Edg-1(S1P1) binding inhibition rate (cell system binding test).
Setting [6] is: test compound 10^-5 M, 1 hour at 30° C., HEK-293 membrane fraction, read-out: Edg-1(S1P1) binding inhibition rate (membrane system binding test).

T1 sequence (P21453 whole entry): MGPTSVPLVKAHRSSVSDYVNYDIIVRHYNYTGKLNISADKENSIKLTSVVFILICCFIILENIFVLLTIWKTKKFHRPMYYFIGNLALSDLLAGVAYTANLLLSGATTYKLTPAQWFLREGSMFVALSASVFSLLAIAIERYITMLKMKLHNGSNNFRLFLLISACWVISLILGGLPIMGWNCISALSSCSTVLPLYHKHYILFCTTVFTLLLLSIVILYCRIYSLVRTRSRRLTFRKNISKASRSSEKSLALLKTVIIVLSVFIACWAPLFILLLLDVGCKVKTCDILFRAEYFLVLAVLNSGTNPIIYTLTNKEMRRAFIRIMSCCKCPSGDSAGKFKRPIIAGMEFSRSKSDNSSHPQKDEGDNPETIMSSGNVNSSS

On to `CCn1c(SCCOC)nnc1[C@@H](C)NS(=O)(=O)c1ccc(Cl)cc1` [Compound 16], for which the inhibition at 10 µM in experiment [1] (setting [3]) is 92.1%; in experiment [2] (setting [4]), 64.4%.
`CCn1c(OC(C)C)nnc1[C@@H](C)NS(=O)(=O)c1cc(F)c(F)c(F)c1` [Compound 458]: the figures for the inhibition at 10 µM in experiment [1] (setting [5]) and in experiment [2] (setting [6]) were 86.5% and 91.9%, respectively.
Taken in the same sequence, the figures for `CCn1c(OC(C)C)nnc1[C@@H](C)NS(=O)(=O)c1ccc(Br)s1` [Compound 452] were 91.8% and 89.7%.
On to `CCn1c(SC(c2ccccc2)c2ccccc2)nnc1[C@@H](C)NS(=O)(=O)c1ccc(Cl)cc1` [Compound 40], for which the inhibition at 10 µM in experiment [1] (setting [3]) turned out to be 87%; in experiment [2] (setting [4]), 46.1%.
With `CCn1c(OC)nnc1[C@@H](C)NS(=O)(=O)c1cc(Br)c(Cl)s1` [Compound 252], the inhibition at 10 µM in experiment [1] (setting [3]) came to 103%; in experiment [2] (setting [4]), 100%.
With `CCn1c(OC(C)C)nnc1[C@@H](C)NS(=O)(=O)c1ccc(F)cc1` [Compound 477], the values for the inhibition at 10 µM in experiment [1] (setting [5]) and in experiment [2] (setting [6]) were 92% and 77.1%, respectively.
In the case of `CCn1c(SCCCN(C)C)nnc1[C@@H](C)NS(=O)(=O)c1ccc(Cl)cc1` [Compound 67], the figures for the inhibition at 10 µM in experiment [1] (setting [3]) and in experiment [2] (setting [4]) were 73.8% and 42.2%, respectively.
Regarding `C=CCSc1nnc([C@@H](C)NS(=O)(=O)c2ccc(Cl)cc2)n1CC` [Compound 3], the figures for the inhibition at 10 µM in experiment [1] (setting [3]) and in experiment [2] (setting [4]) were 86.1% and 89.1%, respectively.
For `CCOc1nnc([C@@H](C)NS(=O)(=O)c2ccc(C(F)(F)F)cc2)n1CC` [Compound 432] the same measures were 92.2% and 82.9%.
In the case of `CCn1c(SCc2ccncc2)nnc1[C@@H](C)NS(=O)(=O)c1ccc(Cl)cc1` [Compound 64], the results for the inhibition at 10 µM in experiment [1] (setting [3]) and in experiment [2] (setting [4]) were 91.3% and 86.5%, respectively.
For `COc1nnc([C@@H](C)NS(=O)(=O)c2ccc(Cl)cc2)n1C1CC1` [Compound 543], the inhibition at 10 µM amounted to 93.1% in experiment [1] (setting [5]) and 101% in experiment [2] (setting [6]).
`CCn1c(OC)nnc1[C@@H](C)NS(=O)(=O)c1cccc2c(N(C)C)cccc12` [Compound 218]: the inhibition at 10 µM in experiment [1] (setting [3]) is 101%; in experiment [2] (setting [4]) it was 40.2%.
As to `CCn1c(OCC(F)(F)F)nnc1[C@@H](C)NS(=O)(=O)c1ccc(Br)c(F)c1` [Compound 487], the inhibition at 10 µM was determined as 99.6% in experiment [1] (setting [5]) and 90.4% in experiment [2] (setting [6]).
As to `CCn1c(OCC(C)C)nnc1[C@@H](C)NS(=O)(=O)c1ccc(Cl)cc1` [Compound 389], the inhibition at 10 µM in experiment [1] (setting [3]) worked out at 96.3%; in experiment [2] (setting [4]), 89.6%.
With `CCn1c(OC)nnc1[C@@H](C)NS(=O)(=O)c1ccc(Cl)c(Cl)c1` [Compound 274], the inhibition at 10 µM stood at 102% in experiment [1] (setting [3]) and 104% in experiment [2] (setting [4]).
For `CCn1c(OC)nnc1[C@@H](C)NS(=O)(=O)c1cc(F)c(Br)cc1F` [Compound 270] the same measures were 94.8% and 61.3%.
Taken in the same sequence, the figures for `CCOc1nnc([C@@H](C)NS(=O)(=O)c2ccc(OC)cc2)n1CC` [Compound 420] were 93.3% and 50.1%.
Consider `CCn1c(OC(C)C)nnc1[C@@H](C)NS(=O)(=O)c1ccc2ccccc2c1` [Compound 464], for which the inhibition at 10 µM is 99.6% in experiment [1] (setting [5]) and 98.3% in experiment [2] (setting [6]).
On to `CCn1c(SCCC23CC4CC(CC(C4)C2)C3)nnc1[C@@H](C)NS(=O)(=O)c1ccc(Cl)cc1` [Compound 86], for which the inhibition at 10 µM in experiment [1] (setting [3]) turned out to be 93.4%; in experiment [2] (setting [4]), 110%.
With `CCn1c(OC(C)C)nnc1[C@@H](C)NS(=O)(=O)c1ccc(C)c(Cl)c1` [Compound 454], the inhibition at 10 µM in experiment [1] (setting [5]) amounted to 91.7%; in experiment [2] (setting [6]), 92.6%.
For `CCn1c(OCC(F)(F)F)nnc1[C@@H](C)NS(=O)(=O)c1ccc(Br)c(C(F)(F)F)c1` [Compound 513] the same measures were 98.8% and 55.2%.
`CCn1c(OC)nnc1[C@@H](C)NS(=O)(=O)c1ccc(F)c(C#N)c1` [Compound 307]: the inhibition at 10 µM in experiment [1] (setting [3]) turned out to be 96.2%; in experiment [2] (setting [4]) it was 68%.
Taken in the same sequence, the figures for `CCn1c(OC)nnc1[C@H](C)NS(=O)(=O)c1ccc(Cl)c([N+](=O)[O-])c1` [Compound 209] were 91.4% and 104%.
Taken in the same sequence, the figures for `CCn1c(OCCOC)nnc1[C@@H](C)NS(=O)(=O)c1ccc(Cl)cc1` [Compound 375] were 92.6% and 54.3%.
For `CCn1c(SCC2CCCN(C)C2)nnc1[C@@H](C)NS(=O)(=O)c1ccc(Cl)cc1` (stereo partly drawn) [Compound 65] the same measures were 83.3% and 83.1%.
With `CCn1c(OC(C)C)nnc1[C@@H](C)NS(=O)(=O)c1ccc(C(F)(F)F)cc1` [Compound 473], the inhibition at 10 µM in experiment [1] (setting [5]) worked out at 95.1%; in experiment [2] (setting [6]), 91.7%.
On to `CCOc1nnc([C@@H](C)NS(=O)(=O)c2ccc3c(c2)OCO3)n1CC` [Compound 418], for which the inhibition at 10 µM was 99.5% in experiment [1] (setting [3]) and 70.4% in experiment [2] (setting [4]).
Take `CCn1c(OCC(F)(F)F)nnc1[C@@H](C)NS(=O)(=O)c1ccc(F)cc1` [Compound 512]: the inhibition at 10 µM in experiment [1] (setting [5]) worked out at 105%; in experiment [2] (setting [6]), 71.5%.
Taken in the same sequence, the figures for `CCn1c(OCC(F)(F)F)nnc1[C@@H](C)NS(=O)(=O)c1cc(F)c(F)c(F)c1` [Compound 490] were 101% and 88.9%.
Take `CCCOc1nnc([C@@H](C)NS(=O)(=O)c2ccc(OC)cc2)n1CC` [Compound 195]: the inhibition at 10 µM was determined as 103% in experiment [1] (setting [3]) and 91.2% in experiment [2] (setting [4]).
For `CC#CCSc1nnc([C@@H](C)NS(=O)(=O)c2ccc(Cl)cc2)n1CC` [Compound 27] the same measures were 86.9% and 76%.
For `CCn1c(OC)nnc1[C@@H](C)NS(=O)(=O)c1cc(Br)c(Br)s1` [Compound 203], the values for the inhibition at 10 µM in experiment [1] (setting [3]) and in experiment [2] (setting [4]) were 97.9% and 88.3%, respectively.
Regarding `CCn1c(SCc2ccc(Cl)cc2)nnc1[C@@H](C)NS(=O)(=O)c1ccc(Cl)cc1` [Compound 45], the figures for the inhibition at 10 µM in experiment [1] (setting [3]) and in experiment [2] (setting [4]) were 91.7% and 91.3%, respectively.
For `CCn1c(OC)nnc1[C@@H](C)NS(=O)(=O)c1cc(C(=O)OC)c(C)o1` [Compound 257], the inhibition at 10 µM in experiment [1] (setting [3]) stood at 95.7%; in experiment [2] (setting [4]), 58.1%.
Taken in the same sequence, the figures for `CCn1c(OC)nnc1[C@@H](C)NS(=O)(=O)c1cccc(OC)c1` [Compound 269] were 96.3% and 74.5%.
For the compound `CCn1c(SCCSC)nnc1[C@@H](C)NS(=O)(=O)c1ccc(Cl)cc1` [Compound 26], the values for the inhibition at 10 µM in experiment [1] (setting [3]) and in experiment [2] (setting [4]) were 84% and 61.1%, respectively.
As to `CCn1c(OCCN2CCOCC2)nnc1[C@@H](C)NS(=O)(=O)c1ccc(Cl)cc1` [Compound 393], the inhibition at 10 µM stood at 82.4% in experiment [1] (setting [3]) and 65.3% in experiment [2] (setting [4]).
Turning to `CCn1c(OC)nnc1[C@@H](C)NS(=O)(=O)c1sc2ccc(Cl)cc2c1C` [Compound 214], the inhibition at 10 µM in experiment [1] (setting [3]) is 96.8%; in experiment [2] (setting [4]), 59.3%.
For `C=CCSc1nnc([C@@H](C)NS(=O)(=O)c2ccc(Cl)cc2)n1C(C)C` [Compound 97] the same measures were 88.9% and 52.5%.
Taken in the same sequence, the figures for `CCn1c(SCc2ccccc2C)nnc1[C@@H](C)NS(=O)(=O)c1ccc(Cl)cc1` [Compound 32] were 89.1% and 99.1%.
For `C#CCSc1nnc([C@@H](C)NS(=O)(=O)c2ccc(Cl)cc2)n1CC` [Compound 4], the inhibition at 10 µM in experiment [1] (setting [3]) was found to be 86.8%; in experiment [2] (setting [4]) it was 101%.
For `CCn1c(OC)nnc1[C@@H](C)NS(=O)(=O)c1cc2ccccc2o1` [Compound 427] the same measures were 97.5% and 67%.
Taken in the same sequence, the figures for `CCn1c(SC2CCN(C)CC2)nnc1[C@@H](C)NS(=O)(=O)c1ccc(Cl)cc1` [Compound 70] were 88.4% and 98%.
Take `CCn1c(SCC(=O)OC)nnc1[C@@H](C)NS(=O)(=O)c1ccc(Cl)cc1` [Compound 24]: the inhibition at 10 µM in experiment [1] (setting [3]) was 82.6%; in experiment [2] (setting [4]), 60.6%.
As for `C=CCSc1nnc([C@@H](CC)NS(=O)(=O)c2ccc(Cl)cc2)n1C(C)C` [Compound 117], the inhibition at 10 µM is 93.6% in experiment [1] (setting [3]) and 83.8% in experiment [2] (setting [4]).
